Structure (SMILES)	melting point
CCCOc1ccc(CCCCCCC(=O)O)cc1	49 to 50 °C
O=C1Cc2ccccc2Sc2c1ccc(Cl)c2Cl	133 to 135 °C
CC(C)c1ccc2c(c1)c(S(=O)(=O)c1ccccc1)c(CC(C)(C)C(=O)O)n2Cc1ccc(Cl)cc1	169 to 172 °C
CNC(=O)[C@@H](C[C@H](O)[C@H](CC1CCCCC1)NC(=O)OC(C)(C)C)C(C)C	154 to 157 °C
COc1ccc(C2Cc3[nH]c4ccccc4c3C2)cc1 (stereo not drawn)	106 to 109 °C
Cc1ccc(CCCO)c(NCc2ccc3nc(NCCCN4CCOCC4)n(Cc4nc(C)c(C)nc4C)c3c2)c1	120 °C
O=C(CCCCCNC(=O)C(=O)c1cn2c3c(cccc13)CCC2)NOCc1ccccc1	119 to 121 °C
COc1ccc(C(C)CC(=O)N2C(=O)OCC2C(C)C)cc1 (stereo not drawn)	62 to 63.5 °C
Cc1cc(Oc2ncc(C(F)(F)F)cc2Cl)nn1C(=O)Nc1ccc(C(F)(F)F)cc1	164 to 167 °C
COc1cc2cc(C#N)c(N)cc2cc1OCc1ccccc1	241 to 243 °C
CC(=O)N1CC(CCN2CCC(c3ccc(C(F)(F)F)cc3)CC2)c2ccccc21 (stereo not drawn)	98 to 100 °C
CCOC12CC(C=C(C#N)COC)=CC=C1OCO2 (stereo not drawn)	64 to 65 °C
CN1C(=O)C(NC(=O)Nc2cccc(Cl)c2)N=C(c2ccccc2)c2ccccc21 (stereo not drawn)	178 to 180 °C
N#Cc1cccc(-n2ccc3ccccc32)c1	33 to 36 °C
O=C(c1cccc(Cl)c1)N1CCCN(CC2=Nc3cccc4c(=O)[nH]nc(c34)N2)CC1	147 to 149 °C
CCOCc1nc2c(N)nc3ccccc3c2n1CC1(O)CCC1	174 to 175 °C
Nc1ccc([N+](=O)[O-])cc1S(=O)(=O)CCO	175 °C
COC(=O)C(O)(c1ccc(C(F)(F)F)cc1)c1ccc(C(F)(F)F)cc1	68 °C
C=C1N(CC)C(=O)OC12CCN(CCC=C(c1ccc(F)cc1)c1ccc(F)cc1)CC2	138 to 139 °C
c1ccc(CC[C@H]2CNCCN2)nc1	83 to 87 °C
COc1ccc(CS[C@@H]2C[C@@H](C(=O)N(C)OC)N(S(=O)(=O)c3ccc4ccccc4c3)C2)cc1	101 to 102 °C
CCOc1ccc(C)cc1NC(=O)Nc1ccc(N2CCN(C(=O)OC(C)(C)C)CC2)cc1	105 to 107 °C
O=C(Nc1cccc(O)c1)C(CS)C(F)(F)F (stereo not drawn)	147 to 151 °C
CC1=NN(c2cccc(S(N)(=O)=O)c2)C(=O)C1=c1[nH]c(=c2[nH]c(=C3C(=O)N(c4cccc(S(N)(=O)=O)c4)N=C3C)c3ccccc23)c2ccccc12	> 300 °C
COc1cc(Nc2c(C#N)cnc3cc(OCC(C)(C)CN(C)C)c(OC)cc23)c(Cl)cc1Cl	178 to 180 °C

Structure (SMILES)	melting point
OC1C2C=CC1C1N=NC21 (stereo not drawn)	128 °C
COc1cc2c(cc1C(F)(F)F)N(C(=O)Nc1ccccc1CCN(C)C)CC2	166 to 168 °C
c1ccc(-c2ccc(-c3nc4n(n3)CCc3ccccc3-4)cc2)cc1	143 to 144 °C
Clc1cccc2c3c([nH]c12)-c1ccccc1C3	139 °C
CS(=O)(=O)c1ccc(-n2cnc(Cl)c2-c2ccc(OC(F)(F)F)cc2)cc1	136 to 138 °C
Nc1cccc2c1cnn2-c1ccc(F)cc1	84 to 88 °C
CC(C(=O)O)c1ccc(C(=O)c2cccs2)c(Cl)c1 (stereo not drawn)	82.5 °C
Cc1ccc2nc(-c3ccccc3)c(-c3ccccc3)nc2c1	114 to 116 °C
O=C1c2ccccc2CN1c1cccc(CCN2CCN(c3nsc4ccccc34)CC2)c1	154 to 155 °C
COC(=O)c1ccc(C(=S)Nc2ccccc2OC)cc1	105 to 107 °C
O=C(O)CC1(c2ccc(Cl)cc2)CNC(=O)C1 (stereo not drawn)	190 to 191 °C
CC(CCOS(C)(=O)=S)(C(=O)O)C(=O)O (stereo not drawn)	109 to 111 °C
Cc1cccc(-c2cccc(CBr)n2)n1	88 °C
COc1cc(Nc2c(C#N)cnc3cc(-c4ccc(CN5CCOCC5)o4)ccc23)c(Cl)cc1Cl	182 to 183 °C
ClCc1nc2sc3c(c2c(-c2ccc(Cl)cc2)c1Cl)CCN(Cc1ccccc1)C3	204 to 205 °C
N#CC(C(=O)Nc1ccccc1)C(=O)c1nn(-c2ccccc2)c2c1CSc1ccc(NC(=O)CCC(=O)O)cc1-2 (stereo not drawn)	230 to 233 °C
O=C1CCCC(=O)N1c1ccc([N+](=O)[O-])cc1	207 to 209 °C
COc1cc2c(cc1Br)CC=C2CCNC(=O)C(F)(F)F	126 to 129 °C
CCOC(=O)CCNC(=O)C(Cc1ccc(-c2ccccc2)cc1)N(CP(=O)(O)O)C(OC(=O)Cc1ccccc1)C(C)C (stereo not drawn)	148 to 150 °C
CC(C)(C#N)Cc1ccc(-c2ccc(CC(C)(C)C#N)cc2)cc1	174 to 182 °C
COc1cc(-c2cccc(Cl)c2)c2cc(Br)ccc2n1	124 °C
FC(F)(F)c1ccc2nccc(Br)c2c1	56 °C
CCNc1nc2c(C)sc(C(=O)OC)c2n1Cc1ccc(-c2ccccc2C#N)cc1	190 to 191 °C
N#CC1(N)CCOCC1	46 to 47 °C
O=C(O)C1CCC(O)CC1 (stereo not drawn)	110 to 130 °C

Structure (SMILES)	melting point
Cc1ccc(S(=O)(=O)NC(=S)Nc2cnccc2N)cc1	185 to 187 °C
CC(=O)NCC1CN(c2ccc(N3CCN(C4N=NC(=O)S4)CC3)c(F)c2)C(=O)O1 (stereo not drawn)	173 to 175 °C
CC(C)(C)c1cc(C(=O)Nc2cnc3ccc(Cl)cc3c2-c2ccccc2)cc(C(C)(C)C)c1O	232 to 235 °C
CCCCOC(=O)C=Cc1c(-c2ccccc2)nn2ccccc12	80 to 82 °C
CCCC(=O)Nc1n[nH]c2cc(Cl)c(-c3ccncc3)cc12	260 °C
COc1ccc(-c2cc(C(N)=O)c(=O)n(CC3CC3)n2)cc1	182 to 183 °C
O=C(O)c1cc2cccc(I)c2s1	268 to 270 °C
OC(c1ccccc1)(c1ccc(F)cc1)C1CCNCC1 (stereo not drawn)	144 to 146 °C
Cc1cc(Oc2ccc(Cl)c(C(F)(F)F)c2)ncc1[N+](=O)[O-]	75 to 80 °C
CC(C)n1nc(-c2sc(NCc3ccco3)nc2-c2ccccc2)ccc1=O	115 to 116 °C
O=c1oc2cc(O)ccc2c2c1CCCC2	200 to 202 °C
O=C(NOc1ccc([N+](=O)[O-])cc1)OCCCNC(=O)OC1CCN(C(=O)Oc2ccc(Oc3ccccc3)cc2)CC1	97 to 100 °C
Cc1ccc(CNC(=O)c2ccc3n2Cc2ccccc2N(C(=O)c2ccc(-c4ccccc4C)c(C)c2)C3)cc1	179 to 181 °C
CC(C)N(C)S(=O)(=O)NC(=O)c1cc(N)c(F)cc1Cl	160 to 162 °C
CCCOc1ccc2cc(-c3ccc4c(c3)C=C(C(=O)Nc3ccc(CN(C)C5CCOCC5)cc3)CCS4(=O)=O)oc2c1	215 to 216 °C
O=C1c2ccccc2C(c2ccc(O)cc2)(c2ccc(O)cc2)c2ccccc21	320 to 322 °C
CCOC(=O)C(C)=NNc1ccc(F)c(Cl)c1	89 to 91 °C
COc1cc(COc2nn(-c3ccccc3)cc2/C=C/C(=O)O)ccc1OCc1nc(-c2ccccc2)oc1C	188 to 189 °C
COc1c(C)c(C(=O)c2ccc3nc(C)oc(=O)c3c2)n2ccccc12	218 °C
COc1ccc2cc(N3CCN(C4CCC(c5c[nH]c6ccc(F)cc56)CC4)CC3)ccc2c1 (stereo not drawn)	200 to 203 °C
COc1cc(C)c2c(c1OC)CCCC2=O	58 to 62 °C
CCC(c1cc(C(=O)Nc2ccc(-c3ccc(C(=O)NS(C)(=O)=O)cc3C)cc2)ccc1OC)N(C)C (stereo not drawn)	253 to 254 °C
CC(=O)c1ccc(NCc2cc3c(cc2O)CCCO3)cc1	177 to 179 °C
COc1ccc2[nH]c(C(=O)N3CCC[C@H](C)C3)cc2c1	189 to 192 °C
O=C(Nc1ccc(-c2nc3ccccc3s2)cc1)C(Cl)Cl	223 to 225 °C

Structure (SMILES)	melting point
Cc1ccc(N2CCN(c3c(C)c(C)c4c(c3C)CC(C)(C)O4)CC2)cc1Cl	146 to 148 °C
O=C(Nc1ccc2ccc(Cl)nc2n1)c1ccc(Cl)c(Cl)c1	230 °C
CN1CC(C[N+]2([O-])CC(=O)NC2=O)CC2c3cccc4[nH]cc(c34)CC21 (stereo not drawn)	163 to 165 °C
Cc1c(N)c([N+](=O)[O-])cc2c(=O)c(C(=O)O)cn(-c3cc(N)c(F)cc3F)c12	> 280 °C
CCOC(=O)C(=CNc1csnn1)C(=O)c1cc(F)c(F)cc1F	104 to 106 °C
Cc1ccccc1C(=O)Nc1ccc(C(=O)N2CCCCc3sccc32)cc1	181 to 182 °C
S=C=Nc1ccc(-c2nc(-c3cccs3)no2)cc1	161 to 162 °C
Cn1c(-c2ccccc2F)nnc1S(C)(=O)=O	128 to 130 °C
N#Cc1ncn2c1nc(N1CCOCC1)c1ccccc12	225 to 228 °C
COc1cc2c(cc1OC)C1(CCC(=O)NC1=O)CCC2=O (stereo not drawn)	269 to 271 °C
COc1ccc2ccn3c(C(F)(F)F)nnc3c2c1	152 to 154 °C
NC(=O)C1CCc2cc(S(=O)(=O)Nc3ccc(-n4nnn(CCCC5CCCC5)c4=O)cc3)ccc2O1 (stereo not drawn)	202 to 205 °C
CC(C)CNC(=O)C=CC=Cc1ccc2c(c1)OCO2	156 to 160 °C
O=C(c1cccc(Nc2nc(-c3ccccc3)nc3ccccc23)c1)N1CCN(c2ncc(Cc3ccccc3)cn2)CC1	214 to 215 °C
COc1ccc(C(=O)Nc2ccccc2C(c2ccc(O)cc2)c2ccc(O)cc2)cc1	154 to 156 °C
OC(CCc1cccnc1)COc1ccc(-c2ccccc2)cc1 (stereo not drawn)	83 to 86 °C
CC(C)CC1CCN(CCc2ccccc2)C1=O (stereo not drawn)	69 to 71 °C
C/C(=C\c1ccc(C(=O)O)cc1)c1ccc2c(c1)N(C)CCN2C	203 to 205 °C
Cc1ccccc1C=Cc1ccccc1	92 to 93 °C
CC(C)C(C)NC1=Nc2ccc(Cl)cc2S(=O)(=O)N1C (stereo not drawn)	102 to 105 °C
COc1ccc(CNc2nc(C)nc(C)c2Cl)cc1Oc1ccc2ncc([N+](=O)[O-])n2n1	273 to 274 °C
COCS[C@H](C)[C@](O)(Cn1cncn1)c1ccc(Cl)cc1	122 °C
CCc1cc(C(=O)c2ccccc2Cl)c(-n2c(CNC(=O)c3cc4ccccc4n3CC(=O)O)nnc2C2CCCCC2)s1	159 to 162 °C

Source: a melting point compilation (Tetko et al.; mined from patent text by program, amines drawn as free bases though some values may be those of a salt)
